Patent US20040147545A1, “Derivatives of oxazolidinones as antibacterial agents” (priority 2001, published 2004)
Values after ≈ are worked out from the molar mass of the structure shown.

Columns and labels:
Type in all cases: cell-based
[1] = tested on: E. faecalis resistant to vancomycin; assay: Antibacterial activity, microdilution in culture broth (NCCLS), strain B; conditions: Enterococcus faecalis, G (+) hospital strain, inoculum 5×10^5 UFC/ml
Excerpt: (§1) The antibacterial activity of the new synthesised compounds on the various strains of the bacterial species was implemented using the technique of microdilution in culture broth according to the regulations of the National Committee for Clinical Laboratory Standards (NCCLS), (NCCLS. 1993. Methods for dilution antimicrobial susceptibility tests for bacteria that grow aerobically. Approved standard M7-A3. NCCLS, Vilanova. Pa., and NCCLS. 1993. Methods for dilution antimicrobial susceptibility tests for anaerobic bacteria […]. Approved standard M1-A3. NCCLS, Vilanova. Pa.).
(§2) The inoculum used was 5×10^5 UFC/ml following dilution of the cultures overnight in the exponential phase of bacterial growth.
(§3) The MIC expressed in mg/l was defined as the minimum concentration of antibiotic which inhibited any visible growth.
(§4) Linezolid was included as comparative compound.
(§5) The compounds were tested on the strains of G(+) and G(−) bacteria set out in Table 1, in which: […]

[2] = tested on: S. agalactiae; assay: Antibacterial activity, microdilution in culture broth (NCCLS), strain D; conditions: Streptococcus agalactiae, G (+) hospital strain, inoculum 5×10^5 UFC/ml
Excerpt: as §1, §2, §3, §4, §5

[3] = tested on: M. Catarrahalis; assay: Antibacterial activity, microdilution in culture broth (NCCLS), strain J; conditions: G (−) hospital strain, inoculum 5×10^5 UFC/ml
Excerpt: as §1, §2, §3, §4, §5

[4] = tested on: S. pyogenes; assay: Antibacterial activity, microdilution in culture broth (NCCLS), strain F; conditions: Streptococcus pyogenes, G (+) hospital strain, inoculum 5×10^5 UFC/ml
Excerpt: as §1, §2, §3, §5

[5] = tested on: S. epidermidis; assay: Antibacterial activity, microdilution in culture broth (NCCLS), strain E; conditions: Staphylococcus epidermidis, G (+) hospital strain, inoculum 5×10^5 UFC/ml
Excerpt: as §1, §2, §3, §4, §5

[6] = tested on: S. pneumoniae resistant to penicillin; assay: Antibacterial activity, microdilution in culture broth (NCCLS), strain C; conditions: Streptococcus pneumoniae, G (+) hospital strain, inoculum 5×10^5 UFC/ml
Excerpt: as §1, §2, §3, §4, §5

[7] = tested on: E. coli; assay: Antibacterial activity, microdilution in culture broth (NCCLS), strain H; conditions: Escherichia coli, G (−) hospital strain, inoculum 5×10^5 UFC/ml
Excerpt: as §1, §2, §3, §4, §5

[8] = tested on: H. influenzae; assay: Antibacterial activity, microdilution in culture broth (NCCLS), strain I; conditions: Haemophilus influenzae, G (−) hospital strain, inoculum 5×10^5 UFC/ml
Excerpt: as §1, §2, §3, §4, §5

[9] = tested on: S. aureus resistant to meticillin; assay: Antibacterial activity, microdilution in culture broth (NCCLS), strain A; conditions: Staphylococcus aureus, G (+) hospital strain, inoculum 5×10^5 UFC/ml
Excerpt: as §1, §2, §3, §4, §5

[10] = tested on: B. fragilis; assay: Antibacterial activity, microdilution in culture broth (NCCLS), strain G (anaerobic); conditions: Bacteroides fragilis, anaerobic hospital strain, inoculum 5×10^5 UFC/ml
Excerpt: as §1, §2, §3, §4, §5

MIC [1] | MIC [2] | MIC [3] | MIC [4] | MIC [5] | MIC [6] | MIC [7] | MIC [8] | MIC [9] | MIC [10] | SMILES
< 0.125 µg/mL | < 0.125 µg/mL | 0.25 µg/mL (≈ 0.408 µM) | < 0.125 µg/mL | < 0.125 µg/mL | < 0.125 µg/mL | > 64 µg/mL | 1 µg/mL (≈ 1.63 µM) | < 0.125 µg/mL | 0.5 µg/mL (≈ 0.816 µM) | CNC(=S)NC[C@H]1CN(c2ccc(N3CCN(c4cc5c(cc4F)c(=O)c(C(=O)O)cn5C4CC4)CC3)c(F)c2)C(=O)O1 [EXAMP. 9, 1-cyclopropyl-6-fluoro-7-[4-(2-fluoro-4-{5-(S)-[(3-methyl-thioureido)-methyl]-2-oxo-oxazolidin-3-yl}-phenyl)-piperazin-1-yl]-4-oxo-1,4-dihydro-quinoline-3-carboxylic Acid]
0.5 µg/mL (≈ 0.863 µM) | 0.5 µg/mL (≈ 0.863 µM) | 1 µg/mL (≈ 1.73 µM) | 0.5 µg/mL (≈ 0.863 µM) | 0.25 µg/mL (≈ 0.431 µM) | 0.5 µg/mL (≈ 0.863 µM) | 4 µg/mL (≈ 6.9 µM) | 1 µg/mL (≈ 1.73 µM) | 0.5 µg/mL (≈ 0.863 µM) | 2 µg/mL (≈ 3.45 µM) | CC(=O)NC[C@H]1CN(c2ccc(N3CCN(c4c(F)cc5c(=O)c(C(=O)O)cn6c5c4OCC6C)CC3)cc2)C(=O)O1 (stereo partly drawn) [EXAMP. 5, 9-(4-{4-[5-(S)-(acetylamino-methyl)-2-oxo-oxazolidin-3-yl]-phenyl}-piperazin-1-yl)-8-fluoro-3-methyl-6-oxo-2,3-dihydro-6H-1-oxa-3a-aza-phenalen-5-carboxylic Acid]
1 µg/mL (≈ 1.64 µM) | 0.5 µg/mL (≈ 0.818 µM) | 0.25 µg/mL (≈ 0.409 µM) | 1 µg/mL (≈ 1.64 µM) | 0.5 µg/mL (≈ 0.818 µM) | 1 µg/mL (≈ 1.64 µM) | 2 µg/mL (≈ 3.27 µM) | < 0.125 µg/mL | 2 µg/mL (≈ 3.27 µM) | 16 µg/mL (≈ 26.2 µM) | CC(=O)NC[C@H]1CN(c2ccc(N(C)C3CCN(c4c(F)cc5c(=O)c(C(=O)O)cn6c5c4OCC6C)C3)c(F)c2)C(=O)O1 (stereo partly drawn) [EXAMP. 6, 9-[3-({4-[5-(S)-(acetylamino-methyl)-2-oxo-oxazolidin-3-yl]-2-fluoro-phenyl}-methyl-amino)-pyrrolidin-1-yl]-8-fluoro-3-methyl-6-oxo-2,3-dihydro-6H-1-oxa-3a-aza-phenalen-5-carboxylic Acid]
2 µg/mL (≈ 3.28 µM) | 1 µg/mL (≈ 1.64 µM) | 2 µg/mL (≈ 3.28 µM) | 1 µg/mL (≈ 1.64 µM) | 0.25 µg/mL (≈ 0.409 µM) | 1 µg/mL (≈ 1.64 µM) | 64 µg/mL (≈ 105 µM) | 4 µg/mL (≈ 6.55 µM) | 1 µg/mL (≈ 1.64 µM) | 4 µg/mL (≈ 6.55 µM) | CCNC(=O)NC[C@H]1CN(c2ccc(N3CCN(c4cc5c(cc4F)c(=O)c(C(=O)O)cn5C4CC4)CC3)c(F)c2)C(=O)O1 [EXAMP. 10, 1-cyclopropyl-7-[4-(4-{5-(S)-[(3-ethyl-ureido)-methyl]-2-oxo-oxazolidin-3-yl}-2-fluoro-phenyl)-piperazin-1-yl]-6-fluoro-4-oxo-1,4-dihydro-quinoline-3-carboxylic Acid]
